The results in this text go back to patent US9334263B2, “Compositions useful for treating disorders related to kit” (BLUEPRINT MEDICINES CORPORATION, priority 2013, dated 2016).

Where only a bound is given, the exact number is not on record here.

For the first test, the target named is T1, Kit D816V (HMC1.2 cells, Kit V560G and D816V) (Homo sapiens, UniProt P10721, D816V/V560G).
T1 construct: endogenous in cells; host or cells: HMC1.2 cells
T1 sequence (P10721 26-976 V560G/D816V): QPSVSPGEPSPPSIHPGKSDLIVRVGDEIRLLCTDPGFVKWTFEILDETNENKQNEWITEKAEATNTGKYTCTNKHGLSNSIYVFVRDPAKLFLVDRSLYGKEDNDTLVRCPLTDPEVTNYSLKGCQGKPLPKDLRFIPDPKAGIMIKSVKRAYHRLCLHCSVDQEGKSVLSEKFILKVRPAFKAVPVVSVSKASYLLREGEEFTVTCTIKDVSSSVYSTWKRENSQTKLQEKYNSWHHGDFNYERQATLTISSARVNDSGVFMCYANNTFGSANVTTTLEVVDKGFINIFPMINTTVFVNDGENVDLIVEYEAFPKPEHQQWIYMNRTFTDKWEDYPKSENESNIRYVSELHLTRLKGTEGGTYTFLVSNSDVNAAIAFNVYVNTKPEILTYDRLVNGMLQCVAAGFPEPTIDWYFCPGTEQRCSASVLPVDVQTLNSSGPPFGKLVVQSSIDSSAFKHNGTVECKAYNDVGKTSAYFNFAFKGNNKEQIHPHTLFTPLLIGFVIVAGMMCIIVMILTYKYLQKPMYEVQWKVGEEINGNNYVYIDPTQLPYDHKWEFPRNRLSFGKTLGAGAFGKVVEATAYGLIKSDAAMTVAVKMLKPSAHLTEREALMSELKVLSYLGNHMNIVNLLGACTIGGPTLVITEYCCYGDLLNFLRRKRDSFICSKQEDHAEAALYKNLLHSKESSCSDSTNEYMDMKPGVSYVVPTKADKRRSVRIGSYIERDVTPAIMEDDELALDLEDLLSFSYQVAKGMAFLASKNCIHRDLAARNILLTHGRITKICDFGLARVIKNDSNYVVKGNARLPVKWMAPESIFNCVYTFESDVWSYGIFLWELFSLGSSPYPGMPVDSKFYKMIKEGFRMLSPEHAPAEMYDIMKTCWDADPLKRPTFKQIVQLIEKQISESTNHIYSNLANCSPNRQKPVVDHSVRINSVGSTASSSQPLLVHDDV
Briefly: HMC1.2 autophosphorylation assay (AlphaLISA, phospho-Y719 c-Kit). To be noted: Kit autophosphorylation at tyrosine 719, 90 minutes, read-out: Cellular Activity. It counts as cell-based. In a few lines: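 AlphaScreen signal comes from lysed HMC1.2 cells incubated with phospho-Y719 and total c-Kit antibodies (15 nM final), acceptor beads and then streptavidin donor beads, 2 h each at room temperature. Beforehand, cells deprived of serum overnight received compound for 90 min as a 10-point series, 25 uM–95.4 pM, 0.25% DMSO.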
On the technique in general: Bead proximity is the source of the signal in Alpha formats.
In the case of `c1ccc(Cc2cnc(N3CCN(c4ncnc(Nc5cnn([C@@H]6CCNC6)c5)n4)CC3)nc2)cc1` (single isomer, unassigned) [Compound 53], the IC50 was 10 to 100 nM.

With `c1ccc(Cc2cnc(N3CCN(c4ncnc(Nc5cn[nH]c5)n4)CC3)nc2)cc1` [Compound 4], the IC50 was 10 to 100 nM.

In the case of `Cn1cc(Nc2ncnc(N3CCN(c4ncc(Cc5ccccc5)cn4)CC3)n2)cn1` [Compound 10], the IC50 was in the range of 100 to 1000 nM.

In the case of `Nc1cccc(Nc2ncnc(N3CCN(c4ncc(Cc5ccccc5)cn4)CC3)n2)c1` [Compound 12], the IC50 is under 10 nM.

`OCc1cccc(Nc2ncnc(N3CCN(c4ncc(Cc5ccccc5)cn4)CC3)n2)c1` [Compound 15]: the IC50 was 10 to 100 nM.

In the case of `CCNc1cccc(Nc2ncnc(N3CCN(c4ncc(Cc5ccccc5)cn4)CC3)n2)c1` [Compound 25], the IC50 lay in the range of 10 to 100 nM.

Turning to `CNCCn1cc(Nc2ncnc(N3CCN(c4ncc(Cc5ccccc5)cn4)CC3)n2)cn1` [Compound 30], the IC50 fell in the range of 10 to 100 nM.

For the molecule `c1ccc(Cc2cnc(N3CCN(c4ncnc(Nc5cnc6c(c5)CNCC6)n4)CC3)nc2)cc1` [Compound 43], the IC50 lay in the range of 10 to 100 nM.

As to `c1ccc(Cc2cnc(N3CCN(c4ncnc(Nc5ccc6c(c5)CNCC6)n4)CC3)nc2)nc1` [Compound 44], the IC50 is 10 to 100 nM.

Turning to `c1ccc(Oc2cnc(N3CCN(c4ncnc(Nc5ccc6c(c5)CNCC6)n4)CC3)nc2)cc1` [Compound 46], the IC50 was 10 to 100 nM.

`CC(=O)Nc1cccc(Nc2ncnc(N3CCN(c4ncc(Cc5ccccc5)cn4)CC3)n2)c1` [Compound 47]: the IC50 lay within 10 to 100 nM.

As to `CNC(C)c1cccc(Nc2ncnc(N3CCN(c4ncc(Cc5ccccc5)cn4)CC3)n2)c1` (stereo not shown) [Compound 48], the IC50 was 10 to 100 nM.

As for `c1ccc(Cc2cnc(N3CCN(c4ncnc(Nc5cnn([C@H]6CCNC6)c5)n4)CC3)nc2)cc1` [Compound 52], the IC50 is 10 to 100 nM.

In the case of `CNCCCn1cc(Nc2ncnc(N3CCN(c4ncc(Cc5ccccc5)cn4)CC3)n2)cn1` [Compound 61], the IC50 lay in the range of 10 to 100 nM.

In the case of `O=C1CCc2ccc(Nc3ncnc(N4CCN(c5ncc(Cc6ccccc6)cn5)CC4)n3)cc2N1` [Compound 68], the IC50 lay within 10 to 100 nM.

Consider `CN1CCc2ccc(Nc3ncnc(N4CCN(c5ncc(Cc6ccccc6)cn5)CC4)n3)cc2C1` [Compound 69], for which the IC50 was under 10 nM.

The target in the next test is T2, wild type Kit (Homo sapiens, UniProt P10721).
T2 construct: purchased Carna Bioscience 08-156
T2 sequence (P10721 26-976): as the sequence (P10721 26-976 V560G/D816V) above, with G535V, V791D counted along it
Briefly: Kit wild type assay at Km (Caliper electrophoretic mobility shift). To be noted: 400 uM ATP, 25 C, 90 minutes; read-out: WT KIT. It is filed as biochemical. In a few lines:
(§1)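 Read-out is the ratio of phosphorylated to unphosphorylated fluorescent peptide, resolved by mobility shift on a Caliper EZ Reader 2.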
Take `c1ccc(Cc2cnc(N3CCN(c4ncnc(Nc5cnn([C@@H]6CCNC6)c5)n4)CC3)nc2)cc1` (single isomer, unassigned) [Compound 53]: the IC50 is under 10 nM.

As to `c1ccc(Cc2cnc(N3CCN(c4ncnc(Nc5cn[nH]c5)n4)CC3)nc2)cc1` [Compound 4], the IC50 was under 10 nM.

For `Cn1cc(Nc2ncnc(N3CCN(c4ncc(Cc5ccccc5)cn4)CC3)n2)cn1` [Compound 10], the IC50 lay in the range of 11 to 100 nM.

Turning to `Nc1cccc(Nc2ncnc(N3CCN(c4ncc(Cc5ccccc5)cn4)CC3)n2)c1` [Compound 12], the IC50 was under 10 nM.

`OCc1cccc(Nc2ncnc(N3CCN(c4ncc(Cc5ccccc5)cn4)CC3)n2)c1` [Compound 15]: the IC50 is 11 to 100 nM.

Turning to `CCNc1cccc(Nc2ncnc(N3CCN(c4ncc(Cc5ccccc5)cn4)CC3)n2)c1` [Compound 25], the IC50 was 11 to 100 nM.

With `CNCCn1cc(Nc2ncnc(N3CCN(c4ncc(Cc5ccccc5)cn4)CC3)n2)cn1` [Compound 30], the IC50 was in the range of 11 to 100 nM.

As to `c1ccc(Cc2cnc(N3CCN(c4ncnc(Nc5cnc6c(c5)CNCC6)n4)CC3)nc2)cc1` [Compound 43], the IC50 lay in the range of 11 to 100 nM.

On to `c1ccc(Cc2cnc(N3CCN(c4ncnc(Nc5ccc6c(c5)CNCC6)n4)CC3)nc2)nc1` [Compound 44], for which the IC50 lay in the range of 11 to 100 nM.

In the case of `c1ccc(Oc2cnc(N3CCN(c4ncnc(Nc5ccc6c(c5)CNCC6)n4)CC3)nc2)cc1` [Compound 46], the IC50 was under 10 nM.

For `CC(=O)Nc1cccc(Nc2ncnc(N3CCN(c4ncc(Cc5ccccc5)cn4)CC3)n2)c1` [Compound 47], the IC50 lay within 11 to 100 nM.

With `CNC(C)c1cccc(Nc2ncnc(N3CCN(c4ncc(Cc5ccccc5)cn4)CC3)n2)c1` (stereo not shown) [Compound 48], the IC50 is under 10 nM.

As to `c1ccc(Cc2cnc(N3CCN(c4ncnc(Nc5cnn([C@H]6CCNC6)c5)n4)CC3)nc2)cc1` [Compound 52], the IC50 is under 10 nM.

As for `CNCCCn1cc(Nc2ncnc(N3CCN(c4ncc(Cc5ccccc5)cn4)CC3)n2)cn1` [Compound 61], the IC50 was under 10 nM.

As for `O=C1CCc2ccc(Nc3ncnc(N4CCN(c5ncc(Cc6ccccc6)cn5)CC4)n3)cc2N1` [Compound 68], the IC50 was 11 to 100 nM.

Turning to `CN1CCc2ccc(Nc3ncnc(N4CCN(c5ncc(Cc6ccccc6)cn5)CC4)n3)cc2C1` [Compound 69], the IC50 is under 10 nM.

A further test deals with T3, PDGFRA D842V (Homo sapiens, UniProt P16234, D842V).
T3 construct: purchased ProQinase 0761-0000-1
T3 sequence (P16234 24-1089 D842V): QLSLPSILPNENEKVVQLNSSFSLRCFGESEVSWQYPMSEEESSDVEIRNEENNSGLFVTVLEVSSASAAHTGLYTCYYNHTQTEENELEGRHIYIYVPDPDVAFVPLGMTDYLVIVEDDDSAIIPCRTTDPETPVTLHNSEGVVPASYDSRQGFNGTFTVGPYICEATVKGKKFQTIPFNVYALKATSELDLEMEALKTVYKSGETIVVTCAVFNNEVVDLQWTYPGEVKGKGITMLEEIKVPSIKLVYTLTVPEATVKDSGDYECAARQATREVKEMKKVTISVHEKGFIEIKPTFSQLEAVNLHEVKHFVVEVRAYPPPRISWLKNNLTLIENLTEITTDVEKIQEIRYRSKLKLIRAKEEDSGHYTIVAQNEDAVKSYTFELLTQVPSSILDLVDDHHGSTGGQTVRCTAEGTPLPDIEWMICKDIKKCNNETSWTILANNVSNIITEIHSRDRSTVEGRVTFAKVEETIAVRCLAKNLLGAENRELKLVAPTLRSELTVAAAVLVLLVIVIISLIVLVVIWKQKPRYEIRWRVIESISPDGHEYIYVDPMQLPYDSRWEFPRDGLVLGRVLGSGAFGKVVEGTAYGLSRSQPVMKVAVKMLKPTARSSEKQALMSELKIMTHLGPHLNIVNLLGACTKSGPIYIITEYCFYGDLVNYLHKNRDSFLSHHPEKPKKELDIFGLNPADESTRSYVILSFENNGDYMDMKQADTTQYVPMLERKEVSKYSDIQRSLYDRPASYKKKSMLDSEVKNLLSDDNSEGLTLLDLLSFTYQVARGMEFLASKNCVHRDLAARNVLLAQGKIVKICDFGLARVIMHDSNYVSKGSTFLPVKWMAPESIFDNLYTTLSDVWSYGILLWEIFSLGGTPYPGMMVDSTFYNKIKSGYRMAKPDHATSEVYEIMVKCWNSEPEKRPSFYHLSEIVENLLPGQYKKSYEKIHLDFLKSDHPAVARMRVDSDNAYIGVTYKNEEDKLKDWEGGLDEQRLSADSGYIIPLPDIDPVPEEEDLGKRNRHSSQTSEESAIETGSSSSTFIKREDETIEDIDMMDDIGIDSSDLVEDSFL
Briefly: PDGFRA D842V assay at Km (Caliper electrophoretic mobility shift). It counts as biochemical. To be noted: 15 uM ATP, 25 C, 90 minutes; read-out: PDFGRA D842V. As for the experimental part: In order to assess the activity of chemical compounds against the relevant kinase of interest, the Caliper LifeSciences electrophoretic mobility shift technology platform is used. Fluorescently labeled substrate peptide is incubated in the presence of kinase and ATP so that a […] proportion of the peptide is phosphorylated. At the end of the reaction, the mix of phosphorylated (product) and non-phosphorylated (substrate) peptides are passed through the microfluidic system of the Caliper EZ Reader 2, under an applied potential difference. The presence of the phosphate group on the product peptide provides a difference in mass and charge between those of the substrate peptide, resulting in a separation of the substrate and product pools in the sample. As the pools pass a LEDS within the instrument, these pools are detected and resolved as separate peaks. The ratio between these peaks therefore reflects the activity of the chemical matter at that concentration in that well, under those conditions.
The reaction was stopped by the addition of 70 ul of Stop buffer (100 mM HEPES pH 7.5, 0.015% Brij 35, 35 mM EDTA and 0.2% of Coating Reagent 3 (Caliper Lifesciences)). The plate was then read on a Caliper EZReader 2 (protocol settings: −1.9 psi, upstream voltage −500, downstream voltage −3000, post sample sip 38 s).
On to `c1ccc(Cc2cnc(N3CCN(c4ncnc(Nc5cnn([C@@H]6CCNC6)c5)n4)CC3)nc2)cc1` (single isomer, unassigned) [Compound 53], for which the IC50 was under 1 nM.

In the case of `c1ccc(Cc2cnc(N3CCN(c4ncnc(Nc5cn[nH]c5)n4)CC3)nc2)cc1` [Compound 4], the IC50 was under 1 nM.

`Cn1cc(Nc2ncnc(N3CCN(c4ncc(Cc5ccccc5)cn4)CC3)n2)cn1` [Compound 10]: the IC50 is 1.01 to 10 nM.

With `Nc1cccc(Nc2ncnc(N3CCN(c4ncc(Cc5ccccc5)cn4)CC3)n2)c1` [Compound 12], the IC50 is under 1 nM.

On to `OCc1cccc(Nc2ncnc(N3CCN(c4ncc(Cc5ccccc5)cn4)CC3)n2)c1` [Compound 15], for which the IC50 was under 1 nM.

For the molecule `CCNc1cccc(Nc2ncnc(N3CCN(c4ncc(Cc5ccccc5)cn4)CC3)n2)c1` [Compound 25], the IC50 is under 1 nM.

`CNCCn1cc(Nc2ncnc(N3CCN(c4ncc(Cc5ccccc5)cn4)CC3)n2)cn1` [Compound 30]: the IC50 was under 1 nM.

For the molecule `c1ccc(Cc2cnc(N3CCN(c4ncnc(Nc5cnc6c(c5)CNCC6)n4)CC3)nc2)cc1` [Compound 43], the IC50 was in the range of 1.01 to 10 nM.

Turning to `c1ccc(Cc2cnc(N3CCN(c4ncnc(Nc5ccc6c(c5)CNCC6)n4)CC3)nc2)nc1` [Compound 44], the IC50 lay in the range of 1.01 to 10 nM.

As to `c1ccc(Oc2cnc(N3CCN(c4ncnc(Nc5ccc6c(c5)CNCC6)n4)CC3)nc2)cc1` [Compound 46], the IC50 lay within 1.01 to 10 nM.

`CC(=O)Nc1cccc(Nc2ncnc(N3CCN(c4ncc(Cc5ccccc5)cn4)CC3)n2)c1` [Compound 47]: the IC50 was under 1 nM.

In the case of `CNC(C)c1cccc(Nc2ncnc(N3CCN(c4ncc(Cc5ccccc5)cn4)CC3)n2)c1` (stereo not shown) [Compound 48], the IC50 is under 1 nM.

Regarding `c1ccc(Cc2cnc(N3CCN(c4ncnc(Nc5cnn([C@H]6CCNC6)c5)n4)CC3)nc2)cc1` [Compound 52], the IC50 was under 1 nM.

On to `CNCCCn1cc(Nc2ncnc(N3CCN(c4ncc(Cc5ccccc5)cn4)CC3)n2)cn1` [Compound 61], for which the IC50 was under 1 nM.

As for `O=C1CCc2ccc(Nc3ncnc(N4CCN(c5ncc(Cc6ccccc6)cn5)CC4)n3)cc2N1` [Compound 68], the IC50 was under 1 nM.

For `CN1CCc2ccc(Nc3ncnc(N4CCN(c5ncc(Cc6ccccc6)cn5)CC4)n3)cc2C1` [Compound 69], the IC50 is under 1 nM.

Another test deals with T4, D816V Kit (Homo sapiens, UniProt P10721, D816V).
T4 construct: purchased Carna Bioscience 08-156
T4 sequence (P10721 26-976 D816V): as the sequence (P10721 26-976 V560G/D816V) above, with G535V counted along it
Briefly: Kit D816V assay at Km (Caliper electrophoretic mobility shift). It is filed as biochemical. To be noted: 15 uM ATP, 25 C, 90 minutes. The gist of the method:
as §1
As to `c1ccc(Cc2cnc(N3CCN(c4ncnc(Nc5cnn([C@@H]6CCNC6)c5)n4)CC3)nc2)cc1` (single isomer, unassigned) [Compound 53], the IC50 is under 1 nM.

For `c1ccc(Cc2cnc(N3CCN(c4ncnc(Nc5cn[nH]c5)n4)CC3)nc2)cc1` [Compound 4], the IC50 was under 1 nM.

`Cn1cc(Nc2ncnc(N3CCN(c4ncc(Cc5ccccc5)cn4)CC3)n2)cn1` [Compound 10]: the IC50 is under 1 nM.

As to `Nc1cccc(Nc2ncnc(N3CCN(c4ncc(Cc5ccccc5)cn4)CC3)n2)c1` [Compound 12], the IC50 is under 1 nM.

Regarding `OCc1cccc(Nc2ncnc(N3CCN(c4ncc(Cc5ccccc5)cn4)CC3)n2)c1` [Compound 15], the IC50 was under 1 nM.

On to `CCNc1cccc(Nc2ncnc(N3CCN(c4ncc(Cc5ccccc5)cn4)CC3)n2)c1` [Compound 25], for which the IC50 is under 1 nM.

As for `CNCCn1cc(Nc2ncnc(N3CCN(c4ncc(Cc5ccccc5)cn4)CC3)n2)cn1` [Compound 30], the IC50 was under 1 nM.

With `c1ccc(Cc2cnc(N3CCN(c4ncnc(Nc5cnc6c(c5)CNCC6)n4)CC3)nc2)cc1` [Compound 43], the IC50 was under 1 nM.

As for `c1ccc(Cc2cnc(N3CCN(c4ncnc(Nc5ccc6c(c5)CNCC6)n4)CC3)nc2)nc1` [Compound 44], the IC50 was in the range of 1.01 to 10 nM.

For the molecule `c1ccc(Oc2cnc(N3CCN(c4ncnc(Nc5ccc6c(c5)CNCC6)n4)CC3)nc2)cc1` [Compound 46], the IC50 was under 1 nM.

For the molecule `CC(=O)Nc1cccc(Nc2ncnc(N3CCN(c4ncc(Cc5ccccc5)cn4)CC3)n2)c1` [Compound 47], the IC50 was under 1 nM.

For `CNC(C)c1cccc(Nc2ncnc(N3CCN(c4ncc(Cc5ccccc5)cn4)CC3)n2)c1` (stereo not shown) [Compound 48], the IC50 was under 1 nM.

Consider `c1ccc(Cc2cnc(N3CCN(c4ncnc(Nc5cnn([C@H]6CCNC6)c5)n4)CC3)nc2)cc1` [Compound 52], for which the IC50 was under 1 nM.

Regarding `CNCCCn1cc(Nc2ncnc(N3CCN(c4ncc(Cc5ccccc5)cn4)CC3)n2)cn1` [Compound 61], the IC50 is under 1 nM.

Turning to `O=C1CCc2ccc(Nc3ncnc(N4CCN(c5ncc(Cc6ccccc6)cn5)CC4)n3)cc2N1` [Compound 68], the IC50 was in the range of 1.01 to 10 nM.

Take `CN1CCc2ccc(Nc3ncnc(N4CCN(c5ncc(Cc6ccccc6)cn5)CC4)n3)cc2C1` [Compound 69]: the IC50 is under 1 nM.
